Tests used:
[1] = system: dogs; details: dog, in vivo
[2] = system: humans; test: administration to humans, adverse effects; format: in vivo, human; details: doses exceeding 15 g/m^2
[3] = system: mice; details: mouse, in vivo
[4] = system: aldose reductase; details: humans, mainly in the 1980s; cited from earlier work
[5] = accepted value; cited from earlier work

With `O=S(=O)([O-])CCSSCCS(=O)(=O)[O-].[Na+].[Na+]` the adverse effects [1] was “no adverse effects”, the adverse effects [2] was “no adverse effects” and the adverse effects [3] was “no adverse effects”.
For `O=C1NC(=O)[C@@]2(CCOc3ccc(F)cc32)N1` [sorbinil], the “efficacy in slowing the progress of diabetic retinopathy” value [4] is listed as “some efficacy” and the tolerability in patients [4] is listed as “not well tolerated”.
For `[Cl-].[Na+]` [common table salt], the “oral LD50” value [5] is given as 3750 mg/kg.

From US6251881A, “Method of treating diabetic angiopathy” (priority 1999, dated 2001)
